Measurements: publication PMC6204821, “Inhibitory effect of microalgae and cyanobacteria extracts on influenza virus replication and neuraminidase activity” (PeerJ, 2018)

Legend:
[1] = target: neuraminidase of B/Perth/211/2001 Yam (WT) (Influenza B virus, UniProt Q3S340); test: biochemical; details: read-out: NA Activity (%)
in vitro = details: dog
Description: One hundred microliters of 2.0 × 10^4 MDCK cells were seeded into the 96-well culture plates (flat bottom) and grown for 24 h at 37 °C in a 5% CO2 atmosphere, then, the extracts were added with a final concentration of 1 mg/mL in DMEM. […] The extracts were diluted in culture medium DMEM, the DMSO final concentration was equal to 1.0% (v/v). After 48 h of cells incubation with extracts or vehicle (DMSO), a freshly prepared XTT (Sigma) solution was added, as specified by the manufacturer’s instructions. […] The cell viability was calculated by the comparison between absorbance (A475 nm–A660 nm) from treated (A) and untreated (B) cells using the formula: A/B × 100. Tests were carried out performing three replicates (n = 3).

[2] = test system: A(H3N2)-WT (A/Switzerland/9715293/2013); test: microbe, parasite or virus in culture; format: cell-based; details: Influenza A virus, H3N2, MDCK, read-out: EC50 A(H3N2)-WT
[3] = test system: A(H1N1)pdm09-WT (A/California/04/2009); test: microbe, parasite or virus in culture; format: cell-based; details: Influenza A virus, H1N1, MDCK, read-out: EC50 A(H1N1)pdm09-WT

Sequence of neuraminidase of B/Perth/211/2001 Yam (WT) (Q3S340 1-466): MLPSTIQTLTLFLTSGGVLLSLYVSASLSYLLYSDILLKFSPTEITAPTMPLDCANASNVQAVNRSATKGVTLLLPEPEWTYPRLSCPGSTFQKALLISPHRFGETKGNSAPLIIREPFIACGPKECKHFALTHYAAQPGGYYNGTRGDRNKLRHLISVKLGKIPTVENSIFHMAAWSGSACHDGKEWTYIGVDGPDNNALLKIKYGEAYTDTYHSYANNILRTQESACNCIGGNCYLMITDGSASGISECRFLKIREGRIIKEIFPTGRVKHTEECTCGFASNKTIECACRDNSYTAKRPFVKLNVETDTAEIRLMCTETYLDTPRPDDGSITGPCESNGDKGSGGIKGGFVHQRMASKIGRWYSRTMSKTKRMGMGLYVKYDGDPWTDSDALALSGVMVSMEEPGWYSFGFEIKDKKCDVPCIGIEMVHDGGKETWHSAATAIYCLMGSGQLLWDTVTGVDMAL

Structure (SMILES) | activity at 10 pM [1] | activity at 0.0001 µM [1] | activity at 0.001 µM [1] | activity at 0.01 µM [1] | activity at 0.1 µM [1] | activity at 1 µM [1] | CC50 at 48 h (in vitro) | EC50 [2] | EC50 [3]
CCOC(=O)C1=C[C@@H](OC(CC)CC)[C@H](NC(C)=O)[C@@H](N)C1 [Oseltamivir] | 104% | 118% | 92% | 32% | 11% | 11% | – | – | –
CCC(CC)O[C@@H]1C=C(C(=O)O)C[C@H](N)[C@H]1NC(C)=O [OST-car, Oseltamivir carboxylate] | – | – | – | – | – | – | 2130 µM | 0.032 µM | 0.012 µM
